Reference: ChEMBL document CHEMBL1141528, “Identification of pyrrolo[2,1-f][1,2,4]triazine-based inhibitors of Met kinase” (Bioorg Med Chem Lett, 2008)
≈ marks a conversion by molar mass, not a printed value. One block for each molecule: values may come before it.

Experiments:
[1] = target: Hepatocyte growth factor receptor (Homo sapiens, UniProt P08581); assay: Inhibition of human recombinant c-Met expressed in insect cell-baculovirus expression system
[2] = Antiproliferative activity against human GTL16 cells after 72 hrs by tetrazolium-based colorimetric assay; details: GTL 16, 72 h
[3] = system: Liver; assay: Metabolic stability in mouse liver microsomes; assay type: ADME, Microsome
[4] = Metabolic stability per 10^6 cells in mouse hepatocytes; assay type: ADME, cell-based, Hepatocyte
[5] = Clearance in mouse at 20 mg/kg, iv; assay type: ADME, organism-based; design: dose 20 mg/kg, route intravenous; details: in vivo
[6] = Bioavailability in mouse at 20 mg/kg, ip; assay type: ADME, organism-based; details: in vivo
[7] = Cmax in mouse at 50 mg/kg, po; assay type: ADME, organism-based; design: dose 50 mg/kg, route oral; details: in vivo
[8] = Permeability across human Caco-2 cells; assay type: ADME, cell-based; details: read-out: permeability
[9] = target: Insulin-like growth factor 1 receptor (Homo sapiens, UniProt P08069); assay: Inhibition of IGF1R
[10] = target: Insulin receptor (Homo sapiens, UniProt P06213); assay: Inhibition of InsR
[11] = target: Vascular endothelial growth factor receptor 2 (Homo sapiens, UniProt P35968); assay: Inhibition of VEGFR2
[12] = target: Cyclin-dependent kinase 2 (Homo sapiens, UniProt P24941); assay: Inhibition of CDK2
[13] = Inhibition of PKC
[14] = Inhibition of PKA
[15] = target: Receptor tyrosine-protein kinase erbB-2 (Homo sapiens, UniProt P04626); assay: Inhibition of HER2
[16] = target: MAP kinase-activated protein kinase 2 (Homo sapiens, UniProt P49137); assay: Inhibition of MK2
[17] = target: High affinity nerve growth factor receptor (Homo sapiens, UniProt P04629); assay: Inhibition of TrkA
[18] = target: Tyrosine-protein kinase Lck (Homo sapiens, UniProt P06239); assay: Inhibition of lck
[19] = Aqueous solubility at pH 6.5; assay type: physicochemical

Chain of Tyrosine-protein kinase Lck (P06239 whole entry): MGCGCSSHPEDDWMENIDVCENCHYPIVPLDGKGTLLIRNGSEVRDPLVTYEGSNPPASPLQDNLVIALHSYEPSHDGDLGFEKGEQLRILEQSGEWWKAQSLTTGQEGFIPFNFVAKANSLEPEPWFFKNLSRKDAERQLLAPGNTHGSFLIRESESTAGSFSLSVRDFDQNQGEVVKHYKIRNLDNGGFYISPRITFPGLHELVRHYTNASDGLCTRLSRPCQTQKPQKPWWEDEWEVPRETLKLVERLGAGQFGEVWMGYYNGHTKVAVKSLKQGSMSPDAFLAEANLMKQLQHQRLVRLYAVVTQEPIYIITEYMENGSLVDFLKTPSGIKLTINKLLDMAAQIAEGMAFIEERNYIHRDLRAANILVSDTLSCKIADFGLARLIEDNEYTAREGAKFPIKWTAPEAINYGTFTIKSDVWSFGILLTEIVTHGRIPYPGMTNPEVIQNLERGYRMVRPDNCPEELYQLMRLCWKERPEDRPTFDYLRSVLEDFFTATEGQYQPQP
Chain of Vascular endothelial growth factor receptor 2 (P35968 whole entry): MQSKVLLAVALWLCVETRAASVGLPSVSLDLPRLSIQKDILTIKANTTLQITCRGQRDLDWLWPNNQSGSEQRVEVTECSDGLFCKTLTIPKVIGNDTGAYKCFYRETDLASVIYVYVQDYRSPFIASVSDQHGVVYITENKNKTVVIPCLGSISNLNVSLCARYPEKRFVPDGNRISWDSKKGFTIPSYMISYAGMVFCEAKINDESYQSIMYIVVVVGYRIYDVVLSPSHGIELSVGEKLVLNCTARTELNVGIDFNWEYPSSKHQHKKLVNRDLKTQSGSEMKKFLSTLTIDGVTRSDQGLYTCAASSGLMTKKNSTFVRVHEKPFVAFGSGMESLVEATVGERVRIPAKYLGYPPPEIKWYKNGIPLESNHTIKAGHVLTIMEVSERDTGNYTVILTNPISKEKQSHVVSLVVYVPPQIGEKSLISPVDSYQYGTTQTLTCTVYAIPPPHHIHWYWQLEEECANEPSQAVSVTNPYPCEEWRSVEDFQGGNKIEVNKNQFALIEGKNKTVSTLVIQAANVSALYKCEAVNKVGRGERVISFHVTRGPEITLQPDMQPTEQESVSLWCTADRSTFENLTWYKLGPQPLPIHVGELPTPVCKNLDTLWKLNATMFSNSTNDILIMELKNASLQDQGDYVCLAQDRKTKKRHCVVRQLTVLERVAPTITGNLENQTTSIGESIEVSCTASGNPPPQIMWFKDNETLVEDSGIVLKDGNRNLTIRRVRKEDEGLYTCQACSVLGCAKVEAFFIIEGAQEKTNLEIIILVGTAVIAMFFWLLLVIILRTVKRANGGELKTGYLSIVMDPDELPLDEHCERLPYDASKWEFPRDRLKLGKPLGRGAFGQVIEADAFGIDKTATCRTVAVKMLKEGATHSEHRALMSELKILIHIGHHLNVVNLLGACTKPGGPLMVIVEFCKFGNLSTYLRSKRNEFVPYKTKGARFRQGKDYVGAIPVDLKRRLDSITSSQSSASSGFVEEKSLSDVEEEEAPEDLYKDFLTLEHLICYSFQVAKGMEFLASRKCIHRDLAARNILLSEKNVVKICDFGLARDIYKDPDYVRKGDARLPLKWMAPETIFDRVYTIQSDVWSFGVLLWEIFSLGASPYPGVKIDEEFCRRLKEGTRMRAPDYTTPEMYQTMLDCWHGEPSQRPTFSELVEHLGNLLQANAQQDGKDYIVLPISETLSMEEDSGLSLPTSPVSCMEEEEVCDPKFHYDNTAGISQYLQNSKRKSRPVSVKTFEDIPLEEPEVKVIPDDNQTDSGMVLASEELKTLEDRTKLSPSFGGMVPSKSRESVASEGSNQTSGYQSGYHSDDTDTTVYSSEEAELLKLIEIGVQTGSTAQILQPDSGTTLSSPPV
Chain of Insulin receptor (P06213 28-758 limits assumed): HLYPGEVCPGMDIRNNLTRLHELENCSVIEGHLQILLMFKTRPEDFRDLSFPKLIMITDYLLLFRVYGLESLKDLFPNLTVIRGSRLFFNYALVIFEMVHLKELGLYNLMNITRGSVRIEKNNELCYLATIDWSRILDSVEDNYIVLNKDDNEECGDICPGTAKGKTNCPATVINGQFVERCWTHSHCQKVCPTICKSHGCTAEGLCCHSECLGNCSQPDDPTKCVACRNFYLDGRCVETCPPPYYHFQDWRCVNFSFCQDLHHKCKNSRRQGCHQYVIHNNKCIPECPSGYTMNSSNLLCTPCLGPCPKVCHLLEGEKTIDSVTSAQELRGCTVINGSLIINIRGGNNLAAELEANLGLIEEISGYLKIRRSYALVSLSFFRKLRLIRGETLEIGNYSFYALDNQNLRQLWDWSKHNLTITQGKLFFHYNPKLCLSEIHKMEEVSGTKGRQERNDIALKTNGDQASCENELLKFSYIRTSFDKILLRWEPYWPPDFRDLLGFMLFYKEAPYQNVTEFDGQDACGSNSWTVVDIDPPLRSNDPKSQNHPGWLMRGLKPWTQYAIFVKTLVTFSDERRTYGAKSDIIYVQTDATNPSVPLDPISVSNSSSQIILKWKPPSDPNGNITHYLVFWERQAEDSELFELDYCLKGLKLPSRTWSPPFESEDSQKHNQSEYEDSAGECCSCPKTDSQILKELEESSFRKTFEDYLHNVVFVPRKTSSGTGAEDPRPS
Chain of Insulin receptor (P06213 763-1382 limits assumed): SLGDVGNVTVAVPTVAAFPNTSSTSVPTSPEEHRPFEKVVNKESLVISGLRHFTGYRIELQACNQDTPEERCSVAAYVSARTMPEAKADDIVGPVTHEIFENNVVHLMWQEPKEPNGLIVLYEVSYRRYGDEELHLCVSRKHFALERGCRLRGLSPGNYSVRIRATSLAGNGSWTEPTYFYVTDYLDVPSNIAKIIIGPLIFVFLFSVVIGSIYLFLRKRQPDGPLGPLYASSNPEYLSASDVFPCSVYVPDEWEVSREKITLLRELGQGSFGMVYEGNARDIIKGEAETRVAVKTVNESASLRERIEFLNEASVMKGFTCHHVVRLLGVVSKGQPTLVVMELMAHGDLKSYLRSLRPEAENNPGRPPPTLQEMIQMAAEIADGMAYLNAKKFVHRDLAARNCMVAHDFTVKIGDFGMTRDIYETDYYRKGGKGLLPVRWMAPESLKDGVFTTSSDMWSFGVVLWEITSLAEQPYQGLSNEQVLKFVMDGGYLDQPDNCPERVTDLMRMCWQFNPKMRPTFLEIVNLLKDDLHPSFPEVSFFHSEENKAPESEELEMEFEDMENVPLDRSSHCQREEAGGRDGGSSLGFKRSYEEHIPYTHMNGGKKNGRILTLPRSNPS
Chain of Insulin-like growth factor 1 receptor (P08069 31-736 limits assumed): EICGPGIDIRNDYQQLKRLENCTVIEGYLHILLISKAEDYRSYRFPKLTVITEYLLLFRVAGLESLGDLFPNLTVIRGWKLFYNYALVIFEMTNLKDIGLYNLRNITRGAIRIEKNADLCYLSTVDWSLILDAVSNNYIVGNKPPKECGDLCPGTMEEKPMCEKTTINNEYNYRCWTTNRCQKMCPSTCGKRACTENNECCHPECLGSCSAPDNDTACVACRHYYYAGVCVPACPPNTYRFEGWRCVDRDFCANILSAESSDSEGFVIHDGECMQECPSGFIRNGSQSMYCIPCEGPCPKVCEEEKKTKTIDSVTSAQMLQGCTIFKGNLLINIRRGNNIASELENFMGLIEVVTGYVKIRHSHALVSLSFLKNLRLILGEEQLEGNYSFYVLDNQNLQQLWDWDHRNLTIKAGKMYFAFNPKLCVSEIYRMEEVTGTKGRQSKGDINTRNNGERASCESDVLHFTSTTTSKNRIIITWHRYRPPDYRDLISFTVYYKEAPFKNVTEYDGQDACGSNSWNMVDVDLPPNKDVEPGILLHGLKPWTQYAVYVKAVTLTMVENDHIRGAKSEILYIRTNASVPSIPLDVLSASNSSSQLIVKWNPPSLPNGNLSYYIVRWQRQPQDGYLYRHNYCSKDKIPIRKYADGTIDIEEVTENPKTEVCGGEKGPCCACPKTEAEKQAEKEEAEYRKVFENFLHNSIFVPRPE
Chain of Insulin-like growth factor 1 receptor (P08069 741-1367 limits assumed): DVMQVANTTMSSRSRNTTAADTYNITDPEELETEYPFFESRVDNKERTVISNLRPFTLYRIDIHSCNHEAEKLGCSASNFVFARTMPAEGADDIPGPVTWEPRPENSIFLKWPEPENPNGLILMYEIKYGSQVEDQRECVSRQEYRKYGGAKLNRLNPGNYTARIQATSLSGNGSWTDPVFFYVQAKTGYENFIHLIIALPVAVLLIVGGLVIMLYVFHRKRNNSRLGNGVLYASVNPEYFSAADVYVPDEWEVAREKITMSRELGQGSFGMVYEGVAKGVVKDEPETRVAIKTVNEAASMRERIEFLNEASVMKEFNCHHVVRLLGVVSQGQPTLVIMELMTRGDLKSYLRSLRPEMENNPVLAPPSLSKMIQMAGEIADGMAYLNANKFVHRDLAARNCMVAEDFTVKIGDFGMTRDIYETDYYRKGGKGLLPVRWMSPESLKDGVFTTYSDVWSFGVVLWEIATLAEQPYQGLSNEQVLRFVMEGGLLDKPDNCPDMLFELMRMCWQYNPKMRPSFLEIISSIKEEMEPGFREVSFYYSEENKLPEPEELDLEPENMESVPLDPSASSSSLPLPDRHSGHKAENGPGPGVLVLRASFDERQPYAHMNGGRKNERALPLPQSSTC
Chain of MAP kinase-activated protein kinase 2 (P49137 whole entry): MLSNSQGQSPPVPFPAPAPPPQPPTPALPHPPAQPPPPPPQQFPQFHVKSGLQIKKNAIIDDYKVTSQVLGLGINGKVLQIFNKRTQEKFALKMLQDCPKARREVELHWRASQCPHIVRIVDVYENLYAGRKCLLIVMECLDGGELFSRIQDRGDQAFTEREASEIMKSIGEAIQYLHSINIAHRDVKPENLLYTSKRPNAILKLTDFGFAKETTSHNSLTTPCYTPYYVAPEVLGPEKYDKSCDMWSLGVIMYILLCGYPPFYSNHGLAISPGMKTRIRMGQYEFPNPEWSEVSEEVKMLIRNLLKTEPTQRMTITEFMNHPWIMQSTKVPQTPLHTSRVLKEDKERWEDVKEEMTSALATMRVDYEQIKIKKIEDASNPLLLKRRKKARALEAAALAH

IC50 [1]: > 2 µM
Compound: O=C(Cc1ccc(F)cc1)NC(=O)Nc1ccc(Oc2ncnn3ccc(Cl)c23)c(F)c1

Compound: Cc1c(OCCCN(C)C)cn2ncnc(Oc3ccc(NC(=O)c4c(F)cccc4F)cc3F)c12
IC50 [2]: 0.17 µM

Stability [3]: 0 nmol/min/mg
Stability [4]: 2 pmol/min
clearance [5]: 25 mL/min/kg
bioavailability [6]: 81%
Cmax [7]: 780 nM
Papp [8]: < 1.5 ×10⁻⁶ cm/s
IC50 [9]: > 5 µM
IC50 [10]: > 5 µM
IC50 [11]: > 5 µM
IC50 [12]: > 5 µM
IC50 [13]: > 5 µM
IC50 [14]: > 5 µM
IC50 [15]: > 5 µM
IC50 [16]: > 5 µM
IC50 [17]: 0.2 µM
IC50 [18]: > 5 µM
Compound: NC1CCN(Cc2ccn3ncnc(Oc4ccc(NC(=O)NC(=O)Cc5ccc(F)cc5)cc4F)c23)CC1

Compound: NC1CCC(=Cc2ccn3ncnc(Oc4ccc(NC(=O)NC(=O)Cc5ccc(F)cc5)cc4F)c23)CC1 (stereo unspecified)
IC50 [2]: 0.14 µM

Compound: Cc1c(OCCN2CCN(C)CC2)cn2ncnc(Oc3ccc(NC(=O)c4cc(F)ccc4F)cc3F)c12
IC50 [2]: > 1 µM

solubility [19]: 290 µg/mL (≈ 556 µM)
Compound: O=C(Cc1ccc(F)cc1)NC(=O)Nc1ccc(Oc2ncnn3ccc(CN4CCNCC4)c23)c(F)c1

Compound: Cc1c(OCCN2CCN(C)CC2)cn2ncnc(Oc3ccc(NC(=O)c4ccccc4F)cc3F)c12
IC50 [2]: 0.84 µM

Compound: Cc1c(OCCN2CCN(C)CC2)cn2ncnc(Oc3ccc(NC(=O)c4c(F)cccc4F)cc3F)c12
IC50 [2]: > 1 µM

Compound: Cc1c(OCCN2CCN(C)CC2)cn2ncnc(Oc3ccc(NC(=O)c4cc(Cl)ccc4F)cc3F)c12
IC50 [2]: 0.27 µM

Compound: Cc1c(OCCCN(C)C)cn2ncnc(Oc3ccc(NC(=O)CC(=O)Nc4ccc(F)cc4)cc3F)c12
IC50 [2]: 0.27 µM

Compound: Cc1c(OCCCN(C)C)cn2ncnc(Oc3ccc(NC(=O)NC(=O)Cc4ccc(F)cc4)cc3F)c12
IC50 [2]: 0.068 µM
